Data taken from US20240158446A1, “CYCLIC COMPOUND HAVING SELECTIVE INHIBITORY ACTION ON KRAS OVER HRAS AND NRAS” (CHUGAI SEIYAKU KABUSHIKI KAISHA, priority 2021, published 2024).

What was measured:
[1] = biological target: GDP-bound KRAS wild-type protein (Homo sapiens, UniProt P01116); assay: Binding to KRAS by surface plasmon resonance (SPR), Single Cycle Kinetics; conditions: SPR, Single Cycle Kinetics, GDP-bound KRAS wild-type protein; read-out: KRAS KD
[2] = biological target: GDP-bound NRAS wild-type protein (Homo sapiens, UniProt P01111); assay: Binding to NRAS by surface plasmon resonance (SPR), Single Cycle Kinetics; conditions: SPR, GDP-bound NRAS wild-type protein vs GDP-bound KRAS wild-type protein
[3] = biological target: GDP-bound HRAS wild-type protein (Homo sapiens, UniProt P01112); assay: Binding to HRAS by surface plasmon resonance (SPR), Single Cycle Kinetics; conditions: SPR, GDP-bound HRAS wild-type protein vs GDP-bound KRAS wild-type protein
Chain of GDP-bound HRAS wild-type protein (P01112 whole entry): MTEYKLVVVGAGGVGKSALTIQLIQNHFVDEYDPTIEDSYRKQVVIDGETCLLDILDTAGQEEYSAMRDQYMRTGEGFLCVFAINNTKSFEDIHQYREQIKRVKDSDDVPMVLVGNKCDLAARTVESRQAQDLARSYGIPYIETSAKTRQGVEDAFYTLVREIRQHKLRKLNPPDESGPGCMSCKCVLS

Chain of GDP-bound NRAS wild-type protein (P01111 whole entry): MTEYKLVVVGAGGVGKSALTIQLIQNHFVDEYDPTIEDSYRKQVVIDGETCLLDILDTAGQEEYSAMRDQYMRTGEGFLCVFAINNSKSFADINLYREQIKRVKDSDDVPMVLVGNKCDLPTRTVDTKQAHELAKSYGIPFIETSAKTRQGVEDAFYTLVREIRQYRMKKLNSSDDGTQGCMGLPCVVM
Chain of GDP-bound KRAS wild-type protein (P01116 whole entry): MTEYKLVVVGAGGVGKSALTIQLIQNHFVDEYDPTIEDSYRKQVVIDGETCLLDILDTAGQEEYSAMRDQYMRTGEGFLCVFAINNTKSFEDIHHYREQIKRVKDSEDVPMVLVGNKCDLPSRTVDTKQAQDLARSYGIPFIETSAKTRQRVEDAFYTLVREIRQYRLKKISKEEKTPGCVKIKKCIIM

Kd [1] [nM]	Structure (SMILES)	NRAS/KRAS (ratio of KD value for NRAS to KD value for KRAS) [2]	HRAS/KRAS (ratio of KD value for HRAS to KD value for KRAS) [3]
0.26	CCO[C@@H]1C[C@H]2C(=O)NC3(CC(C)(C)C3)C(=O)N(C)[C@@H](C(CC)CC)C(=O)N(C)[C@H](C(=O)N(C)C)CC(=O)N(C)[C@@H](CC3CC3)C(=O)N[C@@H]([C@@H](C)CC)C(=O)N(C)CC(=O)N(C)[C@H]3C/C=C\CCN(C3=O)[C@@H](Cc3ccc(C(F)(F)F)cc3)C(=O)N(C)CC(=O)N[C@@H](CCc3ccc(C(F)(F)F)c(Cl)c3)C(=O)N2C1 [PP2124]	AA (a compound having 20 or more is denoted as AA)	A (a compound having 10 or more and less than 20 is denoted as A)
0.22	CCC[C@H]1C(=O)N[C@@H]([C@@H](C)CC)C(=O)N(C)CC(=O)N(C)[C@H]2C/C=C\CCN(C2=O)[C@@H](Cc2ccc(C(F)(F)F)cc2)C(=O)N(C)CC(=O)N[C@@H](CCc2cc(F)c(C(F)(F)F)c(F)c2)C(=O)N2C[C@H](OCC)C[C@H]2C(=O)NC2(CC(C)(C)C2)C(=O)N(C)[C@@H](C(CC)CC)C(=O)N(C)[C@H](C(=O)N(C)C)CC(=O)N1C [PP2125]	AA (a compound having 20 or more is denoted as AA)	A (a compound having 10 or more and less than 20 is denoted as A)
0.23	CCO[C@@H]1C[C@H]2C(=O)NC3(CC(C)(C)C3)C(=O)N(C)[C@@H](C(CC)CC)C(=O)N(C)[C@H](C(=O)N(C)C)CC(=O)N(C)[C@@H](COC)C(=O)N[C@@H]([C@@H](C)CC)C(=O)N(C)CC(=O)N(C)[C@H]3C/C=C\CCN(C3=O)[C@@H](Cc3ccc(C(F)(F)F)cc3)C(=O)N(C)CC(=O)N[C@@H](CCc3ccc(C(F)(F)F)c(Cl)c3)C(=O)N2C1 [PP2126]	A (a compound having 10 or more and less than 20 is denoted as A)	B (a compound having 3 or more and less than 10 is denoted as B)
0.18	CCO[C@@H]1C[C@H]2C(=O)NC3(CC(C)(C)C3)C(=O)N(C)[C@@H](C(CC)CC)C(=O)N(C)[C@H](C(=O)N(C)C)CC(=O)N(C)[C@@H](CC(C)C)C(=O)N[C@@H]([C@@H](C)CC)C(=O)N(C)CC(=O)N(C)[C@H]3C/C=C\CCN(C3=O)[C@@H](Cc3ccc(C(F)(F)F)cc3)C(=O)N(C)CC(=O)N[C@@H](CCc3cc(F)c(C(F)(F)F)c(F)c3)C(=O)N2C1 [PP2127]	AA (a compound having 20 or more is denoted as AA)	A (a compound having 10 or more and less than 20 is denoted as A)
0.4	CCO[C@@H]1C[C@H]2C(=O)NC3(CC(C)(C)C3)C(=O)N(C)[C@@H](C(CC)CC)C(=O)N(C)[C@H](C(=O)N3CCCC3)CC(=O)N(C)[C@@H](COC)C(=O)N[C@@H]([C@@H](C)CC)C(=O)N(C)CC(=O)N(C)[C@H]3C/C=C\CCN(C3=O)[C@@H](Cc3ccc(C(F)(F)F)cc3)C(=O)N(C)CC(=O)N[C@@H](CCc3ccc(C(F)(F)F)c(Cl)c3)C(=O)N2C1 [PP2128]	AA (a compound having 20 or more is denoted as AA)	A (a compound having 10 or more and less than 20 is denoted as A)
0.27	CCO[C@@H]1C[C@H]2C(=O)NC3(CC(C)(C)C3)C(=O)N(C)[C@@H](C(CC)CC)C(=O)N(C)[C@H](C(=O)N(C)C)CC(=O)N(C)[C@@H](CC(C)C)C(=O)N[C@@H]([C@@H](C)CC)C(=O)N(C)CC(=O)N(C)[C@H]3C/C=C\CCN(C3=O)[C@@H](Cc3ccc(C(F)(F)F)cc3)C(=O)N(C)CC(=O)N[C@@H](CCc3ccc(C(F)(F)F)c(Cl)c3)C(=O)N2C1 [PP2132]	AA (a compound having 20 or more is denoted as AA)	A (a compound having 10 or more and less than 20 is denoted as A)
0.49	CCO[C@@H]1C[C@H]2C(=O)NC3(CC(C)(C)C3)C(=O)N(C)[C@@H](C(CC)CC)C(=O)N(C)[C@H](C(=O)N(C)C)CC(=O)N(C)[C@@H](C(C)C)C(=O)N[C@@H]([C@@H](C)CC)C(=O)N(C)CC(=O)N(C)[C@H]3C/C=C\CCN(C3=O)[C@@H](Cc3ccc(C(F)(F)F)cc3)C(=O)N(C)CC(=O)N[C@@H](CCc3cc(F)c(C(F)(F)F)c(F)c3)C(=O)N2C1 [PP2135]	AA (a compound having 20 or more is denoted as AA)	A (a compound having 10 or more and less than 20 is denoted as A)
0.44	CCO[C@@H]1C[C@H]2C(=O)NC3(CC(C)(C)C3)C(=O)N(C)[C@@H](C(CC)CC)C(=O)N(C)[C@H](C(=O)N(C)C)CC(=O)N(C)[C@@H](CC3CCC3)C(=O)N[C@@H]([C@@H](C)CC)C(=O)N(C)CC(=O)N(C)[C@H]3C/C=C\CCN(C3=O)[C@@H](Cc3ccc(C(F)(F)F)cc3)C(=O)N(C)CC(=O)N[C@@H](CCc3ccc(C(F)(F)F)c(Cl)c3)C(=O)N2C1 [PP2138]	A (a compound having 10 or more and less than 20 is denoted as A)	A (a compound having 10 or more and less than 20 is denoted as A)
0.7	CCO[C@@H]1C[C@H]2C(=O)NC3(CC(C)(C)C3)C(=O)N(C)[C@@H](C(CC)CC)C(=O)N(C)[C@H](C(=O)N(C)C)CC(=O)N(C)[C@@H](C(C)C)C(=O)N[C@@H]([C@@H](C)CC)C(=O)N(C)CC(=O)N(C)[C@H]3C/C=C\CCN(C3=O)[C@@H](Cc3ccc(C(F)(F)F)cc3)C(=O)N(C)CC(=O)N[C@@H](CCc3ccc(C(F)(F)F)c(Cl)c3)C(=O)N2C1 [PP2140]	AA (a compound having 20 or more is denoted as AA)	A (a compound having 10 or more and less than 20 is denoted as A)

More lines, now with the values behind:

Structure (SMILES)	Kd [1] [nM]	NRAS/KRAS (ratio of KD value for NRAS to KD value for KRAS) [2]	HRAS/KRAS (ratio of KD value for HRAS to KD value for KRAS) [3]
CCO[C@@H]1C[C@H]2C(=O)NC3(CC(C)(C)C3)C(=O)N(C)[C@@H](C(CC)CC)C(=O)N(C)[C@H](C(=O)N(C)C)CC(=O)N(C)[C@@H](CC3CC3)C(=O)N[C@@H]([C@@H](C)CC)C(=O)N(C)CC(=O)N(C)[C@H]3C/C=C\CCN(C3=O)[C@@H](Cc3ccc(C(F)(F)F)cc3)C(=O)N(C)CC(=O)N[C@@H](CCc3cc(F)c(C(F)(F)F)c(F)c3)C(=O)N2C1 [PP2119]	5	A (a compound having 10 or more and less than 20 is denoted as A)	B (a compound having 3 or more and less than 10 is denoted as B)
CCO[C@@H]1C[C@H]2C(=O)NC3(CC(C)(C)C3)C(=O)N(C)[C@@H](C(CC)CC)C(=O)N(C)[C@H](C(=O)N(C)C)CC(=O)N(C)[C@@H](CC3CCC3)C(=O)N[C@@H]([C@@H](C)CC)C(=O)N(C)CC(=O)N(C)[C@H]3C/C=C\CCN(C3=O)[C@@H](Cc3ccc(C)cc3)C(=O)N(C)CC(=O)N[C@@H](CCc3ccc(Cl)c(Cl)c3)C(=O)N2C1 [PP2120]	0.91	AA (a compound having 20 or more is denoted as AA)	A (a compound having 10 or more and less than 20 is denoted as A)
CCO[C@@H]1C[C@H]2C(=O)NC3(CC(C)(C)C3)C(=O)N(C)[C@@H](C(CC)CC)C(=O)N(C)[C@H](C(=O)N(C)C)CC(=O)N(C)[C@@H](COC)C(=O)N[C@@H]([C@@H](C)CC)C(=O)N(C)CC(=O)N(C)[C@H]3C/C=C\CCN(C3=O)[C@@H](Cc3ccc(C(F)(F)F)cc3)C(=O)N(C)CC(=O)N[C@@H](CCc3cc(F)c(C(F)(F)F)c(F)c3)C(=O)N2C1 [PP2121]	1.5	AA (a compound having 20 or more is denoted as AA)	A (a compound having 10 or more and less than 20 is denoted as A)
CCO[C@@H]1C[C@H]2C(=O)NC3(CC(C)(C)C3)C(=O)N(C)[C@@H](C(CC)CC)C(=O)N(C)[C@H](C(=O)N(C)C)CC(=O)N(C)[C@@H](C(C)C)C(=O)N[C@@H]([C@@H](C)CC)C(=O)N(C)CC(=O)N(C)[C@H]3C/C=C\CCN(C3=O)[C@@H](Cc3ccc(C)cc3)C(=O)N(C)CC(=O)N[C@@H](CCc3ccc(Cl)c(Cl)c3)C(=O)N2C1 [PP2122]	1.4	AA (a compound having 20 or more is denoted as AA)	A (a compound having 10 or more and less than 20 is denoted as A)
CCO[C@@H]1C[C@H]2C(=O)NC3(CC(C)(C)C3)C(=O)N(C)[C@@H](C(CC)CC)C(=O)N(C)[C@H](C(=O)N3CCCC3)CC(=O)N(C)[C@@H](COC)C(=O)N[C@@H]([C@@H](C)CC)C(=O)N(C)CC(=O)N(C)[C@H]3C/C=C\CCN(C3=O)[C@@H](Cc3ccc(C(F)(F)F)cc3)C(=O)N(C)CC(=O)N[C@@H](CCc3cc(F)c(C(F)(F)F)c(F)c3)C(=O)N2C1 [PP2123]	0.25	A (a compound having 10 or more and less than 20 is denoted as A)	A (a compound having 10 or more and less than 20 is denoted as A)
CCO[C@@H]1C[C@H]2C(=O)NC3(CC(C)(C)C3)C(=O)N(C)[C@@H](C(CC)CC)C(=O)N(C)[C@H](C(=O)N(C)C)CC(=O)N(C)[C@@H](CC3CCC3)C(=O)N[C@@H]([C@@H](C)CC)C(=O)N(C)CC(=O)N(C)[C@H]3C/C=C\CCN(C3=O)[C@@H](Cc3ccc(C(F)(F)F)cc3)C(=O)N(C)CC(=O)N[C@@H](CCc3cc(F)c(C(F)(F)F)c(F)c3)C(=O)N2C1 [PP2133]	0.19	AA (a compound having 20 or more is denoted as AA)	A (a compound having 10 or more and less than 20 is denoted as A)
CCO[C@@H]1C[C@H]2C(=O)NC3(CC(C)(C)C3)C(=O)N(C)[C@@H](C(CC)CC)C(=O)N(C)[C@H](C(=O)N(C)C)CC(=O)N(C)[C@@H](CC3CC3)C(=O)N[C@@H]([C@@H](C)CC)C(=O)N(C)CC(=O)N(C)[C@H]3C/C=C\CCN(C3=O)[C@@H](Cc3ccc(C)cc3)C(=O)N(C)CC(=O)N[C@@H](CCc3cc(F)c(C(F)(F)F)c(F)c3)C(=O)N2C1 [PP2137]	0.37	A (a compound having 10 or more and less than 20 is denoted as A)	A (a compound having 10 or more and less than 20 is denoted as A)
